# What was measured:
# HCV genotype 1b replicon = assay: HCV RNA replication in Huh7 replicon cells (RT-PCR), single drugs and combinations; format: cell-based, hepatitis C virus; conditions: alone, 72 hours
# NiV = conditions: hamster, in vivo; cited from earlier work
# HeV = conditions: hamster, in vivo; cited from earlier work
# [1] = tested on: JFH1/CsN6A4 infected Huh7 cells; assay: Microarray gene expression in JFH1/CsN6A4 infected Huh7 cells; conditions: for Number of genes modulated by both HCQ and CQ, Down-regulated / Number of genes modulated by both HCQ and CQ, Up-regulated: 40 μM; for Number of genes modulated by both HCQ and CQ, Down-regulated: FC≦0.5; for Number of genes modulated by both HCQ and CQ, Up-regulated: FC≧2; for number of the 118 HCV modulated genes down-regulated (FC≦0.5) by both compounds / number of the 118 HCV modulated genes up-regulated (FC≧2) by both compounds / expression of genes involved in the IFN signaling: 48 hours treatment; for expression of genes involved in the IFN signaling: IFN 100IU
# [2] = tested on: Huh7 harboring replicon cells; assay: Microarray gene expression in Huh7 harboring replicon cells; format: cell-based, Human; conditions: 10 μM
# Huh 5-2 cells = conditions: 6.6 μM; cited from earlier work
# [3] = tested on: HCV replicon-Huh-7/neo cells; assay: Replication levels of HCV replicon by NPTII quantification; conditions: 0.5, 1 or 10 μM, 72 hours
# replicon cells = assay: Cytotoxicity, MTS assay of replicon cells; conditions: tested doses, 72 hours
# [4] = after either 12 hours or 48 hours of treatment
# [5] = cut-off at 12 hours and 24 hours
# [6] = 48 h of antiviral treatment, vs untreated infected cells
compound,measurement,setting,value
"CCN(CC)CCCC(C)Nc1ccnc2cc(Cl)ccc12 (stereo not drawn) [CQ, chloroquine]",HCV RNA replication,HCV genotype 1b replicon,inhibited HCV RNA replication
same,protection of hamsters,NiV,did not protect hamsters
same,protection of hamsters,HeV,did not protect hamsters
same,"Number of genes modulated by both HCQ and CQ, Down-regulated",[1]; 12 h,9
same,"Number of genes modulated by both HCQ and CQ, Up-regulated",[1]; 12 h,38
same,"Number of genes modulated by both HCQ and CQ, Down-regulated",[1]; 48 h,262
same,"Number of genes modulated by both HCQ and CQ, Up-regulated",[1]; 48 h,24
same,Number of genes Induced by JFH1 infection and Down-regulated by treatment,[1]; 48 h,104
same,Number of genes Induced by JFH1 infection and Up-regulated by treatment,[1]; 48 h,1
same,Number of genes Repressed by JFH1 infection and Down-regulated by treatment,[1]; 48 h,2
same,Number of genes Repressed by JFH1 infection and Up-regulated by treatment,[1]; 48 h,11
same,number of the 118 HCV modulated genes down-regulated (FC≦0.5) by both compounds,[1],106
same,number of the 118 HCV modulated genes up-regulated (FC≧2) by both compounds,[1],12
same,genes significantly up-regulated in common with HCQ and CQ,[1]; [4],62 genes
"CCN(CCO)CCCC(C)Nc1ccnc2cc(Cl)ccc12 (stereo not drawn) [HCQ, 2-[[4-[(7-chloro-4-quinolinyl)amino]pentyl]ethylamino]ethanol, reference compound]",HCV RNA replication,HCV genotype 1b replicon,inhibited HCV RNA replication in a dose dependent manner
same,"Number of genes transcriptionally modulated, Down-regulated",[2]; 6 hours,5
same,"Number of genes transcriptionally modulated, Down-regulated",[2]; 12 hours,30
same,"Number of genes transcriptionally modulated, Up-regulated",[2]; 12 hours,7
same,"Number of genes transcriptionally modulated, Down-regulated",[2]; 24 hours,63
same,"Number of genes transcriptionally modulated, Up-regulated",[2]; 24 hours,23
same,number of significantly repressed genes (FC≦0.5) among the 23 modulated genes,[2]; [5],20
same,number of up-regulated genes (FC≧2) among the 23 modulated genes,[2]; [5],3
same,cell growth with respect to the untreated control,Huh 5-2 cells,more than 81%
same,"replication level of HCV replicon (% NPTII), number of HCV infected cells",[3],dose-dependent decrease
same,"Number of genes modulated by both HCQ and CQ, Down-regulated",[1]; 12 h,9
same,"Number of genes modulated by both HCQ and CQ, Up-regulated",[1]; 12 h,38
same,"Number of genes modulated by both HCQ and CQ, Down-regulated",[1]; 48 h,262
same,"Number of genes modulated by both HCQ and CQ, Up-regulated",[1]; 48 h,24
same,Number of genes Induced by JFH1 infection and Down-regulated by treatment,[1]; 48 h,104
same,Number of genes Induced by JFH1 infection and Up-regulated by treatment,[1]; 48 h,1
same,Number of genes Repressed by JFH1 infection and Down-regulated by treatment,[1]; 48 h,2
same,Number of genes Repressed by JFH1 infection and Up-regulated by treatment,[1]; 48 h,11
same,number of the 118 HCV modulated genes down-regulated (FC≦0.5) by both compounds,[1],106
same,number of the 118 HCV modulated genes up-regulated (FC≧2) by both compounds,[1],12
same,expression of genes involved in the IFN signaling,[1],None of the genes regulated by IFN were found to be modulated
same,genes significantly down-modulated in common with HCQ and CQ,[1]; [4],271 genes
same,genes significantly up-regulated in common with HCQ and CQ,[1]; [4],62 genes
"NC(=O)c1ncn([C@@H]2O[C@H](CO)[C@@H](O)[C@H]2O)n1 [Ribavirin, ribavirin]",delay of death from viral disease,NiV,approximately 5 days
same,effect on death from viral disease,HeV,no significant effect
IFNα,HCV RNA replication,HCV genotype 1b replicon,inhibited HCV RNA replication in a dose dependent manner
same,cell viability,replicon cells,not affected
same,"Fold Change, AMBRA1",[1]; [6],0.4
same,"Fold Change, ATF2",[1]; [6],0.4
same,"Fold Change, ATF3",[1]; [6],0.2
same,"Fold Change, ATF4",[1]; [6],0.5
same,"Fold Change, ATF7IP",[1]; [6],0.4
same,"Fold Change, ATG2A",[1]; [6],0.3
same,"Fold Change, ATG4B",[1]; [6],1.3
same,"Fold Change, ATG7",[1]; [6],0.9
same,"Fold Change, ATG12",[1]; [6],0.8
same,"Fold Change, BBC3",[1]; [6],0.1
same,"Fold Change, BCL3",[1]; [6],0.4
same,"Fold Change, BECN1",[1]; [6],1.4
same,"Fold Change, BMF",[1]; [6],0.2
same,"Fold Change, CXCL5",[1]; [6],1.3
same,"Fold Change, CYP1A1",[1]; [6],0.4
same,"Fold Change, CYR61",[1]; [6],0.2
same,"Fold Change, DAPK3",[1]; [6],0.3
same,"Fold Change, DDIT3",[1]; [6],0.1
same,"Fold Change, DDIT4",[1]; [6],0.3
same,"Fold Change, DUSP1",[1]; [6],0.1
same,"Fold Change, DUSP4",[1]; [6],0.2
same,"Fold Change, DUSP8",[1]; [6],0.1
same,"Fold Change, FOXO3",[1]; [6],0.5
same,"Fold Change, GABARAPL1",[1]; [6],0.4
same,"Fold Change, GADD45A",[1]; [6],0.2
same,"Fold Change, GADD45B",[1]; [6],0.1
same,"Fold Change, GADD45G",[1]; [6],0.3
same,"Fold Change, HRK",[1]; [6],0.7
same,"Fold Change, ICAM1",[1]; [6],2.0
same,"Fold Change, IKBKAP",[1]; [6],1.3
same,"Fold Change, JUN",[1]; [6],0.2
same,"Fold Change, MAP1LC3B",[1]; [6],0.4
same,"Fold Change, MYC",[1]; [6],0.3
same,"Fold Change, NFKB1",[1]; [6],0.8
same,"Fold Change, NFKBIA",[1]; [6],0.3
same,"Fold Change, NFKBIB",[1]; [6],0.4
same,"Fold Change, NFKBIE",[1]; [6],0.3
same,"Fold Change, NFKBIL2",[1]; [6],1.5
same,"Fold Change, NKIRAS1",[1]; [6],0.4
same,"Fold Change, NKIRAS2",[1]; [6],1.0
same,"Fold Change, NKRF",[1]; [6],1.0
same,"Fold Change, PDRG1",[1]; [6],0.6
same,"Fold Change, PIK3C3",[1]; [6],0.5
same,"Fold Change, PRKAA1",[1]; [6],0.3
same,"Fold Change, RELB",[1]; [6],0.4
same,"Fold Change, SESN2",[1]; [6],0.2
same,"Fold Change, SIRT1",[1]; [6],0.5
same,"Fold Change, SQSTM1",[1]; [6],0.5
same,"Fold Change, STK11",[1]; [6],0.9
same,"Fold Change, TANK",[1]; [6],1.2
same,"Fold Change, TNFRSF10B",[1]; [6],0.6
same,"Fold Change, TRAF2",[1]; [6],0.7
same,"Fold Change, TRAF4",[1]; [6],0.7
same,"Fold Change, TSC1",[1]; [6],0.6
same,"Fold Change, TSC2",[1]; [6],0.9
same,"Fold Change, UBD",[1]; [6],0.8
same,"Fold Change, ULK1",[1]; [6],0.3
same,expression of genes involved in the IFN signaling,[1],significantly increased
